Key:
[1] = test system: TGN46 (trans-Golgi network marker) in Hela cells; test: Immunostaining and confocal microscopy of Hela cells; type: cell-based, human; conditions: 50 μM
[2] = target: T1, BRAG2 (BRAG2^Sec7PH) (Homo sapiens, UniProt Q6DN90); test: Nucleotide exchange kinetics on liposomes, activation of myristoylated Arf1; type: biochemical
T1 construct: human BRAG2^Sec7 (390-594) and BRAG2^Sec7PH (390-811); made in house
Experimental: The effect of Bragsin1 on the GEF efficiency of representative human ArfGEFs was evaluated by fluorescence kinetics using highly purified recombinant Arf GTPases and ArfGEFs. In a first series of assays, the Sec7 domains of BIG1, a Golgi ArfGEF, and of ARNO, EFA6a and BRAG2, which function at the plasma membrane, were used. When tested in solution, Bragsin1 had no effect on the activation of Arf1 by any of these Sec7 domains (FIGS. 2a and 14). Separately, we reconstituted the activation of myristoylated Arf1 by the same ArfGEFs on liposomes using ArfGEF constructs that contain a membrane-binding domain (DCB-HUS domain for BIG1, PH domains for the other GEFs). […] BRAG2 activates several Arf isoforms, including the plasma membrane-located Arf6 isoform. […] Bragsin1 and Bragsin2 have the same IC50 towards BRAG2 ([…]) according to dose-response analysis, confirming that Bragsin1 and Bragsin2 can be used interchangeably (FIG. 2d). The specific inhibition of BRAG2 by Bragsin in vitro predicts that BRAG2 silencing by siRNA should yield the same phenotype as treatment by the small molecule. Silencing of BRAG2 induced the redistribution of TGN46 into tubular or punctate structures, which phenocopied the effects induced by Bragsin (FIGS. 2e, 17 and 18). […] Silencing of ARNO, which is located at the plasma membrane, had no effect on TGN46 distribution. Overexpression of BRAG2-mCherry rescued the dispersion of the TGN46 structure induced by Bragsin, which is consistent with the silencing experiments (FIG. 2f). Bragsin is a specific inhibitor of the ArfGEF BRAG2 in vitro and in cells according to these experiments. These oexperiments identify a mechanism of inhibition that requires the membrane to manifests itself.
Bovine Δ17Arf1 and human Δ13Arf6, full-length myristoylated Arf1 and Arf6, human BRAG2^Sec7 (390-594) and BRAG2^Sec7PH (390-811), human EFA6^Sec7 (527-727) and EFA6^Sec7PHCt (527-1024), ARNO^Sec7 (50-256), BIG1^Sec7 (691-889), BIG1^DcbHusSec7 (2-888) and ARNO^Sec7PH (50-399) were expressed and purified as in (Benabdi, S. et al. Family-wide Analysis of the Inhibition of Arf Guanine Nucleotide Exchange Factors with Small Molecules: Evidence of Unique Inhibitory Profiles. Biochemistry 56, 5125-5133 (2017)) and references therein. BRAG2^Sec7PH mutants were purified as the wild type protein. Purification of human full-length Rac1 carrying a 6xHis tag in C-terminus and human TRIO^DH1PH1 (1232-1550) was described in (Peurois, F. et al. Characterization of the activation of small GTPases by their GEFs on membranes using artificial membrane tethering. Biochem J 474, 1259-1272 (2017)).
Lipids (of natural origin) were from Avanti Polar Lipids, except NBD-PE from Sigma. Liposomes were prepared as described in (Aizel, K. et al. Integrated conformational and lipid-sensing regulation of endosomal ArfGEF BRAG2. PLOS Biol 11, e1001652 (2013)) and extruded at 0.2 μm. For the Arf GEF specificity studies, liposomes contained 48% phosphatidylcholine (PC), 20% phosphatidylethanolamine (PE), 30% phosphatidylserine (PS) and 2% phosphatidylinositol-4,5-bisphosphate (PIP2). For Rac activation assay, liposomes contained 43% PC, 20% PE, 10% PS, 20% cholesterol, 2% PIP2, 5% NiNTA lipids and 0.2% NBD-PE. To exclude aggregation or disruption of the liposomes, their size distribution was controlled before and after experiments by dynamic light scattering as described in (Benabdi, S. et al. Biochemistry 56, 5125-5133 (2017)). Dose-response and flotation assays were carried out with liposomes containing 37.9% PC, 20% PE, 20% PS, 2% PIP2, 20% cholesterol and 0.1% NBD-PE. Flotation assays were carried out as in 18.
Nucleotide exchange kinetics were monitored by tryptophan fluorescence with excitation/emission wavelengths of 292/340 nm using a Cary Eclipse fluorimeter (Varian) at 37° C. and under continuous stirring as described in ^50,51. […]

T1 sequence (Q6DN90 512-933): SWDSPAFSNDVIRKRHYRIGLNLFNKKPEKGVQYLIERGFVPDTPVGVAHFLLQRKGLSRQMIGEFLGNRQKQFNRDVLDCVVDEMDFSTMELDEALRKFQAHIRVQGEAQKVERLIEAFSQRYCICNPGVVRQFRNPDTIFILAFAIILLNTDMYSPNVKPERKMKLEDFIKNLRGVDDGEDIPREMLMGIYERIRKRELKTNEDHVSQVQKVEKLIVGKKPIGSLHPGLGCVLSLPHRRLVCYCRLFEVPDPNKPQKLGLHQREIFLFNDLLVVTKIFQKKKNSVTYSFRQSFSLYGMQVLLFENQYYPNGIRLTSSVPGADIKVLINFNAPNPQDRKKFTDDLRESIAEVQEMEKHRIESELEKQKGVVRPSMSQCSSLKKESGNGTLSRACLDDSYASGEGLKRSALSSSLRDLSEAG

Structure (SMILES) | Dispersion of TGN46 marker [1] | Biological activity of hydrated derivative ([2]; derivative formed from Bragsin1 in aqueous solution) | Inhibition of BRAG2 in the presence of liposomes ([2]; 50 μM compound vs DMSO, myristoylated Arf1, liposomes)
COc1ccc2oc(C(F)(F)F)cc(=O)c2c1C=O [Compound 5, 6-methoxy-4-oxo-2-(trifluoromethyl)-4H-chromene-5-carbaldehyde] | less effect |  | 
COc1ccc2oc(C(F)(F)F)cc(=O)c2c1C(=O)O [Compound 6, 6-methoxy-4-oxo-2-(trifluoromethyl)-4H-chromene-5-carboxylic acid] | not capable to disperse |  | 
COc1ccc2oc(C(F)(F)F)cc(=O)c2c1 [Compound 3, 6-methoxy-2-(trifluoromethyl)-4H-chromen-4-one] | not capable to disperse |  | 
Cc1ccc2c(c1[N+](=O)[O-])C(=O)CC(O)(C(F)(F)F)O2 (stereo not drawn) [Compound 13, 2-hydroxy-6-methyl-5-nitro-2-(trifluoromethyl)chroman-4-one] |  | biologically inactive | 
COc1cc(OC)c2oc(C(F)(F)F)cc(=O)c2c1[N+](=O)[O-] [Bragsin3, 6,8-dimethoxy-5-nitro-2-(trifluoromethyl)-4H-chromen-4-one] | disperses |  | strongly inhibits

From US12152012B2, “BRAG2 inhibitors and applications thereof” (CENTRE NATIONAL DE LA RECHERCHE SCIENTIFIQUE, priority 2018, dated 2024)
